Test results as given in US20230098254A1, “SCUTELLARIAE RADIX COMPOUNDS AND USE THEREOF FOR INHIBITING OXIDATIVE PHOSPHORYLATION PATHWAY OF MITOCHONDRIA” (priority 2020, published 2023).
Read-outs that look alike come from different tables or passages of the source.

Tests used:
Daoy cell [1] = test: Mitochondria membrane potential difference by TMRM, Daoy cell; type: cell-based, human
Text: (§1) For cells with active mitochondria permeability transition pore, adding peroxide (such as H2O2) could increase the activity of mitochondria permeability transition pore, resulting in a decrease in mitochondria membrane potential.
(§2) The mitochondria membrane potential difference was detected by Tetramethylrhodamine (TMRM), the high fluorescence intensity of TMRM represented the high membrane potential difference.

NCI-H82 cell [2] = test: Mitochondria membrane potential difference by TMRM, NCI-H82 cell; type: cell-based
Text: as §1, §2

Daoy cell [3] = test: Cell viability, Promega CellTiter-Glo, Daoy cell; type: cell-based, human; settings: read-out: IC50 of cell viability inhibition
Method: (§3) Cell viability was detected by using the Promega CellTiter-Glo kit, the kit reflected cell viability by directly measuring intracellular ATP content. […] Daoy cell and NCI-H82 cell were cultured in DMEM containing 10% FBS (plus p/s).

[4] = test system: oxidative phosphorylation pathway of mitochondria; test: Cellular oxygen consumption (OCR), XFe metabolic analysis system; type: cell-based; settings: NCI-H82 cell; 118.2 μM; within half an hour; FIG. 1
Method: The oxygen required by cell was mainly consumed in the mitochondria respiratory chain, so the measurement of cellular oxygen consumption (OCR, oxygen consumption rate) could directly reflect the activity of the oxidative phosphorylation pathway of mitochondria. In this experiment, the XFe metabolic analysis system was used to measure the oxygen consumption of NCI-H82 cell in the presence or absence of Compound SJ2858 (baicalein) and Compound SJ2775 (baicalin).
Rotenone (abbreviated as RO, 0.5 μM) is a known inhibitor of mitochondria oxidative phosphorylation pathway complex I, Antimycin A (abbreviated as AA, 0.5 μM) is a known inhibitor of mitochondria oxidative phosphorylation pathway complex III. Compound SJ2858, 73.2 μM; Compound SJ2775, 118.2 μM.

NCI-H82 cell [5] = test: Cell viability, Promega CellTiter-Glo, NCI-H82 cell; type: cell-based; settings: NCI-H82 cell without CSA (inactive mPTP); read-out: IC50 of cell viability inhibition
Method: as §3

Compound | Effect on membrane potential (in words) (Daoy cell [1]) | Relative TMRM signal intensity (%), mean value (Daoy cell [1]; H2O2 +, CsA −) [%] | Effect on membrane potential (in words) (NCI-H82 cell [2]) | Relative TMRM signal intensity (%), mean value (NCI-H82 cell [2]; H2O2 +, CsA −) [%] | IC50 (Daoy cell [3]; Daoy cell with CSA (1.5 μM mPTP inhibitor)) [µM] | IC50 (Daoy cell [3]; Daoy cell without CSA (active mPTP)) [µM] | Inhibition of oxygen consumption (in words) [4] | IC50 (NCI-H82 cell [5]) [µM]
OO [Compound H2O2, H2O2] | down-regulated | 82 | not affected | 119 |  |  |  | 
O=C(O)[C@H]1O[C@@H](Oc2cc3oc(-c4ccccc4)cc(=O)c3c(O)c2O)[C@H](O)[C@@H](O)[C@@H]1O [Compound SJ2775, baicalin] |  |  |  |  | 45.4 | > 100 | significantly inhibit | 38.6
